# Test results published in US8952012B2, “Inhibition of delta-6 desaturase for the treatment of cardiometabolic disease” (Colorado State University Research Foundation, priority 2012, dated 2015).
# Key:
# [1] = Liver toxicity on chronic administration; format: in vivo; settings: 100 mpk/d for 4 wks, all animal models tested
# [2] = target: T1, microsomal triglyceride transfer protein (MTP) (Bos taurus, UniProt P55156); assay: MTP activity, purified bovine MTP; format: biochemical; settings: relatively weak potency
# T1 sequence (P55156 12-887): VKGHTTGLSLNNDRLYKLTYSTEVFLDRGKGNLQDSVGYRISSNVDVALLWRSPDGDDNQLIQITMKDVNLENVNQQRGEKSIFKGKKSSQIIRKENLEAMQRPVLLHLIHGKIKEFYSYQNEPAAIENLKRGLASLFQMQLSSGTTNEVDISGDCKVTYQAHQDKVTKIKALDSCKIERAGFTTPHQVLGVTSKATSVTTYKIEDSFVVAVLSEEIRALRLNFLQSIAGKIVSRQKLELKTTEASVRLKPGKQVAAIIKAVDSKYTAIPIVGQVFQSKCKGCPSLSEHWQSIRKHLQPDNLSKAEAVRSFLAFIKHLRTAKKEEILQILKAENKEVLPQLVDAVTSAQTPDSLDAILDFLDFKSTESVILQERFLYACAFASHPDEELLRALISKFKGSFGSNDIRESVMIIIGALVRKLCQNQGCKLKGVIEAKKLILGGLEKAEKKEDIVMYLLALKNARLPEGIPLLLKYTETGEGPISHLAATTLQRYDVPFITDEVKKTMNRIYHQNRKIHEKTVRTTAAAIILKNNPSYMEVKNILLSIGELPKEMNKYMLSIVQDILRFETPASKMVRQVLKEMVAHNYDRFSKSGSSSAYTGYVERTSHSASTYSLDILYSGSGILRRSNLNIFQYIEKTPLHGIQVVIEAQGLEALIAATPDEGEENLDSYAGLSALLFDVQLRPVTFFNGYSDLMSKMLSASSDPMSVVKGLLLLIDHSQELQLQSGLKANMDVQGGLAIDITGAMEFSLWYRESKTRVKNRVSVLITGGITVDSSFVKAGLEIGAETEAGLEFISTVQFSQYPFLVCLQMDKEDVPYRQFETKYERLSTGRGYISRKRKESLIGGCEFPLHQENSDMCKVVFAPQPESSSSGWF
# T1 sequence (P05307 21-510 partner): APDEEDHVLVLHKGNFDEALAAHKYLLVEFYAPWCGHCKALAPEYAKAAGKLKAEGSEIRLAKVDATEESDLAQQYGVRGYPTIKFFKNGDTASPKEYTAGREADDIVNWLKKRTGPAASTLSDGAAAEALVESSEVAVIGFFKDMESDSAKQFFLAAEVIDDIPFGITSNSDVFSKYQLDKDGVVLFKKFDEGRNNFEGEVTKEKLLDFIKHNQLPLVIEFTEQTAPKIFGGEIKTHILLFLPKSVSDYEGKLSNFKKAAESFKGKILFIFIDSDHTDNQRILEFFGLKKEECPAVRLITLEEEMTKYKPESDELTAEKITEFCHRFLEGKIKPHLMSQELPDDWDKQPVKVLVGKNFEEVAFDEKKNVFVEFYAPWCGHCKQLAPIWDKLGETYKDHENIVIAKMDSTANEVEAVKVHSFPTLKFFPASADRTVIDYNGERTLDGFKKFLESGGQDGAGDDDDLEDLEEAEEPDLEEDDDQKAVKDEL
# [3] = target: T2, microsomal triglyceride transfer protein (MTP) (Rattus norvegicus, UniProt D4A1W8); assay: MTP activity, rat liver microsomal extracts; format: biochemical; settings: rat liver microsomal extracts at 100 mpk dosing in vivo; relatively weak potency
# T2 construct: rat liver microsomal extracts; from tissue; host or cells: rat liver microsomal extracts
# T2 sequence (D4A1W8 22-896): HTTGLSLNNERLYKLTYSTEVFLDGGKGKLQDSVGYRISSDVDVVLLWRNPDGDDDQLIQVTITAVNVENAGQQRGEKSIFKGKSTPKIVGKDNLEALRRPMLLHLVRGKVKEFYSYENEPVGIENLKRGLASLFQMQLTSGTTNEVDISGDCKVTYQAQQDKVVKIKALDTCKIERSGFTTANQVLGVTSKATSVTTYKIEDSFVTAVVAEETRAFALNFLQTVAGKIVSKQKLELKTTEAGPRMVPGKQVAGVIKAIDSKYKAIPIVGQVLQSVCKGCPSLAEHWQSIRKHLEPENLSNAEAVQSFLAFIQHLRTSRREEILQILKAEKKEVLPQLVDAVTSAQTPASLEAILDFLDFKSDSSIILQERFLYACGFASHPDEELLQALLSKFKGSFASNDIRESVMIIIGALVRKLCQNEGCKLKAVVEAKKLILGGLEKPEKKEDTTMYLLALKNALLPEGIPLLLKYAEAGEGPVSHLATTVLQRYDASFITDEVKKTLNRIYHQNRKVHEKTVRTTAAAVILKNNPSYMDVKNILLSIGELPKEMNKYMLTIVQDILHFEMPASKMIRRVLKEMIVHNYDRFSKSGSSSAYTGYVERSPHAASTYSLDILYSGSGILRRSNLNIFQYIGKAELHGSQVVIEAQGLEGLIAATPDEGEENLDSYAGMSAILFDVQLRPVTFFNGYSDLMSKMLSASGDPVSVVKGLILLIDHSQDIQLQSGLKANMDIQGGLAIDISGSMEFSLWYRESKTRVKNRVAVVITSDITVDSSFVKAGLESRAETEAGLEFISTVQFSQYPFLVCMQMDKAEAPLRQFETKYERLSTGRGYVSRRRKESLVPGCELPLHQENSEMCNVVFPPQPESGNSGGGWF
# T2 sequence (P04785 20-509 partner): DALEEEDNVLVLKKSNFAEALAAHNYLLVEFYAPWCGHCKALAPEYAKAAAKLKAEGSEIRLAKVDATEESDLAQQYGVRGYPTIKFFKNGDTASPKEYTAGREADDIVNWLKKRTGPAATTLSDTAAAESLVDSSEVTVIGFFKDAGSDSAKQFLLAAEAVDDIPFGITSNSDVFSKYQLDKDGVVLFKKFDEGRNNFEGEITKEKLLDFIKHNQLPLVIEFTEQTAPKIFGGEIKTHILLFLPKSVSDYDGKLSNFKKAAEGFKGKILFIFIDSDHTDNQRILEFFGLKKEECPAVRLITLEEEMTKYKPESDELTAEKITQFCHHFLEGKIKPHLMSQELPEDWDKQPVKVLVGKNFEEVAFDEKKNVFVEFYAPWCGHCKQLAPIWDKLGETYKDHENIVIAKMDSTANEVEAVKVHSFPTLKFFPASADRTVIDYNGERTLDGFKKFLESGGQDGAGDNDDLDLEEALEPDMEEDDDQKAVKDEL
# leptin-deficient ob mice = assay: ob/ob mice (hyperphagic obesity) on normal diet treated 4 weeks; format: in vivo
# Method: (§1) To assess the effects of D6D inhibition on structures and processes related to cardiometabolic diseases and disorders, the following experiments were conducted. Animal studies have reported evidence of increased D6D activity in rodent models of CMD (e.g., increase in AA/LA in tissue phospholipids), making them reasonable models for studying the role of D6D in its pathogenesis. To probe the effect of D6D directly, the compound SC-26196, a selective D6D inhibitor was orally administered by admixing the SC-26196 in the food mixtures of the rodent models of CMD at a dosage of about 100 mg/kg/day for four weeks. The rodent models of CMD used in these experiments included a murine model of hyperphagic obesity (leptin-deficient ob mice) and a diet-induced insulin resistance model (normal C57BI/6 mice fed a high-fat “Western” diet) for 8 weeks prior to participation in any experiments.
# Initially, the effects of D6D inhibition in conjunction with a normal diet were assessed. 4 mo old ob/ob mice were administered the selective D6D inhibitor SC-26196 (100 mg/kg/d mixed in chow) for 4 weeks (ob/ob+D6D−; n=12). The ob mice treated with SC-26196 for four weeks (ob+SC) were compared to untreated ob mice (ob) and normal C57BI/6 mice (BI/6). FIGS. 3A-C summarizes the results of this comparison. […] As summarized in FIG. 7, treatment with SC-26196 normalized responses to a glucose tolerance test, decreased serum insulin, and reduced hepatic macrophage (MΦ) content and ser-307 phosphorylation of IRS-1, the canonical cellular mechanism of hepatic insulin resistance resulting from inflammatory signaling. As summarized in FIGS. 8A and 8B, treatment with SC-26196 reduced the hepatic PC/PE ratio in the treated ob mice. FIG. 9 illustrates that SC-26196 treatment normalized the cardiac phospholipid/cardiolipin composition in the treated ob mice.
# ob mice = ob mice on high fat/sucrose Western diet; format: in vivo
# Method: as §1
# To assess the interaction of a high-fat Western diet with the effects of D6D inhibition, the following experiment was conducted. The ob mice and the BI/6 mice were maintained on a high fat/sucrose Western diet and part of each group was treated with SC-26196 in a similar manner as described above. The treated and untreated ob and BI/6 mice were compared. FIGS. 4A-4B summarize the results of this experiment.
# LDLR -/- mice = assay: LDL receptor-lacking mice on Western diet; format: in vivo
# From the text: (§2) Mice lacking LDL receptors (LDLR −/−) were similarly maintained on a high fat/sucrose Western diet and treated with SC-26196 in a similar manner as described above. As summarized in FIG. 5, SC-26196 treatment ameliorated hyperlipidemia and atherosclerosis in mice lacking LDL receptors fed the Western diet. The treatment also attenuated cardiac dysfunction, pathologic hypertrophy and fibrosis in mice subjected to thoracic aortic banding (TAC) or chronic hypertension (HF), as summarized in FIG. 6.
# [4] = system: cardiac dysfunction, hypertrophy, fibrosis; assay: Thoracic aortic banding (TAC) or chronic hypertension (HF) model; format: in vivo, mice
# From the text: as §2
# delta-6 desaturase (D6D) [5] = settings: cited from earlier work
# delta-6 desaturase (D6D) [6] = target: T3, delta-6 desaturase (D6D) (Mus musculus, UniProt Q9Z0R9); settings: cited from earlier work
# T3 construct: host or cells: endogenous enzyme of the dosed animal
# T3 sequence (Q9Z0R9 1-444): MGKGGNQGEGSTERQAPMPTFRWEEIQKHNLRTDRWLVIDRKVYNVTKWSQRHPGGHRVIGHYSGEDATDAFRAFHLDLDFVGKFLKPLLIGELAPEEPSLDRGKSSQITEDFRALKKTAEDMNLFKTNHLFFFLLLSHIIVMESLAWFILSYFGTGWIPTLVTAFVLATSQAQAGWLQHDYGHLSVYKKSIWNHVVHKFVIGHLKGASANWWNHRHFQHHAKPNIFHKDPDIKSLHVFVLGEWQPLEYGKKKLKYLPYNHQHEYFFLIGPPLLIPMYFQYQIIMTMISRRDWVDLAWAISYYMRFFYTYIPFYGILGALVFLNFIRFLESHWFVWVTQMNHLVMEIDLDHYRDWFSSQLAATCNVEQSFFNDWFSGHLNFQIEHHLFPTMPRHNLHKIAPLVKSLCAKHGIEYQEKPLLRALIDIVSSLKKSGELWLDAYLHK
# [7] = cited from earlier work
# tissue AA/LA ratios = settings: cited from earlier work
# [8] = ob mice, normal diet, 100 mg/kg/d
# [9] = ob/ob mice, cardiac, 100 mg/kg/d, vs lean C57BI/6
# [10] = 100 mpk/d mixed in mouse chow, 4 weeks
smiles,measurement,setting,value
"N#CC(CCCN1CCN(/N=C/c2cccnc2)CC1)(c1ccccc1)c1ccccc1 [SC-26196, (E)-2,2-Diphenyl-5-{4-[(pyridin-3-yl-methylene)amino]piperazin-1-yl}pentanenitrile]",hepatomegaly,[1],significant hepatomegaly
same,MTP activity,[2],inhibited MTP activity
same,MTP activity,[3],inhibited MTP activity
same,ser-307 phosphorylation of IRS-1,"leptin-deficient ob mice; ob mice, liver, normal diet, 100 mg/kg/d",reduced
same,cardiac oxidative stress,leptin-deficient ob mice; [8],reduced
same,cardiac phospholipid/cardiolipin composition,leptin-deficient ob mice; [8],normalized
same,eicosanoid species in heart tissue,leptin-deficient ob mice; [8],abolished significant increases
same,eicosanoid species in serum,leptin-deficient ob mice; [8],abolished significant increases
same,hepatic PC/PE ratio,leptin-deficient ob mice; [8],reduced
same,hepatic macrophage content,leptin-deficient ob mice; [8],reduced
same,responses to a glucose tolerance test,leptin-deficient ob mice; [8],normalized
same,serum insulin,leptin-deficient ob mice; [8],decreased
same,"phospholipid AA/LA ratio of serum, liver, heart and muscle tissue","leptin-deficient ob mice; ob mice, normal diet, 100 mg/kg/d in chow",reversed significant elevations
same,cardiac cardiolipin profile,"leptin-deficient ob mice; ob/ob mice, 100 mg/kg/d in chow, vs lean C57BI/6",to levels similar to those in lean age-matched control mice
same,membrane peroxidizability index,leptin-deficient ob mice; [9],to levels similar to those in lean age-matched control mice
same,phospholipid D6D activity index (20:4/18:2 ratio),leptin-deficient ob mice; [9],to levels similar to those in lean age-matched control mice
same,phospholipid DHA content,leptin-deficient ob mice; [9],to levels similar to those in lean age-matched control mice
same,fasting blood glucose,ob mice,reduced
same,responses to a glucose tolerance test,ob mice,normalized
same,serum insulin levels,ob mice,normalized 8-fold elevations
same,atherosclerosis,LDLR -/- mice,ameliorated
same,hyperlipidemia,LDLR -/- mice,ameliorated
same,cardiac dysfunction,[4],attenuated
same,fibrosis,[4],attenuated
same,pathologic hypertrophy,[4],attenuated
same,selectivity for D6D over other desaturase enzymes,delta-6 desaturase (D6D) [5],potent selectivity
same,IC50,delta-6 desaturase (D6D) [5]; in vitro,200 nM
same,inhibition of D6D enzymatic activity in vivo,"delta-6 desaturase (D6D) [6]; 100 mg/kg b.i.d., i.g. over a 24 hr period",about 65%
same,oral activity,delta-6 desaturase (D6D) [6]; at 100 mpk,oral activity
same,Peak plasma levels,[7]; 100 mpk ig dosing,2 µM
same,half-life,[7]; 100 mpk ig dosing,1.2 h
same,bioavailability,"[7]; 100 mpk ig, based on AUC calculations",about 60%
same,effect in a model of acute inflammation,tissue AA/LA ratios; [10],protective effects
same,tissue AA/LA ratios,tissue AA/LA ratios; [10],reduced
same,reversing elevations of tissue AA/LA associated with acute inflammation,"tissue AA/LA ratios; lower doses, 50 and 75 mpk/d, 4 wks",ineffective
